Results reported in patent US12629374B2, “Antimalarial agents” (Merck Sharp & Dohme LLC, priority 2020, dated 2026).

System: ring stage parasites
Assay: Parasite growth potency assay, 72 hours, LDH readout
Format: cell-based
Conditions: 72 h, parasite growth measured by LDH assay after 72 hours at 37° C.; 0.7% rings, 2% haematocrit; read-out: EC50
Method in brief: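 Parasite growth was quantified by LDH assay after a −80 °C freeze-thaw. Before that, compound was incubated for 72 h at 37 °C under humidified gas with ring-stage cultures adjusted to 0.7% parasitemia and 2% haematocrit in serum- and albumax-supplemented RPMI-Hepes.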

CCC1(CC)CC(=O)N([C@H](CCOC)c2cccc(C(=O)N[C@H]3CCOc4ccccc43)c2)C(=N)N1 [Example 56, [1-[1-[3-[[(4S)-chroman-4-yl]carbamoyl]phenyl]-3-methoxy-propyl]-4,4-diethyl-6-oxo-hexahydropyrimidin-2-ylidene]ammonium; 2,2,2-trifluoroacetate]
EC50: 0.5 nM

CCC[C@H](c1cncc(C(=O)N[C@@H]2c3ccccc3C[C@H]2O)c1)N1C(=N)NC(CC)(CC)CC1=O [Example 57, [4,4-diethyl-1-[1-[5-[[(1R,2R)-2-hydroxyindan-1-yl]carbamoyl]pyridin-1-ium-3-yl]butyl]-6-oxo-hexahydropyrimidin-2-ylidene]ammonium; 2,2,2-trifluoroacetate]
EC50: 0.6 nM

CCC1(CC)CC(=O)N([C@H](CCN2CCCC2)c2cccc(C(=O)N[C@H]3CCOc4ccccc43)c2)C(=N)N1 [Example 58, [1-[1-[3-[[(4S)-chroman-4-yl]carbamoyl]phenyl]-3-pyrrolidin-1-ium-1-yl-propyl]-4,4-diethyl-6-oxo-hexahydropyrimidin-2-ylidene]ammonium; 2,2,2-trifluoroacetate]
EC50: 1.3 nM

CCC1(CC)CC(=O)N([C@H](CCO)c2cccc(C(=O)N[C@H]3CCOc4ccccc43)c2)C(=N)N1 [Example 59, [1-[1-[3-[[(4S)-chroman-4-yl]carbamoyl]phenyl]-3-hydroxy-propyl]-4,4-diethyl-6-oxo-hexahydropyrimidin-2-ylidene]ammonium; 2,2,2-trifluoroacetate]
EC50: 4.7 nM

CC[C@@]1(C(C)C)CC(=O)N(Cc2cc(F)cc(C(=O)N[C@H]3CCOc4ccccc43)c2)C(=N)N1 [Example 60, [(4S)-1-[[3-[[(4S)-chroman-4-yl]carbamoyl]-5-fluoro-phenyl]methyl]-4-ethyl-4-isopropyl-6-oxo-hexahydropyrimidin-2-ylidene]ammonium; 2,2,2-trifluoroacetate]
EC50: 5.8 nM

CC[C@@]1(C(C)C)CC(=O)N(Cc2cc(F)cc(C(=O)N[C@@H]3c4ccccc4C[C@H]3O)c2)C(=N)N1 [Example 61, [(4S)-4-ethyl-1-[[3-fluoro-5-[[(1R,2R)-2-hydroxyindan-1-yl]carbamoyl]phenyl]methyl]-4-isopropyl-6-oxo-hexahydropyrimidin-2-ylidene]ammonium; 2,2,2-trifluoroacetate]
EC50: 6.1 nM

CC[C@@]1(C(F)(F)F)CC(=O)N(Cc2cc(F)cc(C(=O)N[C@H]3CCOc4ccccc43)c2)C(=N)N1 [Example 63, [(4S)-1-[[3-[[(4S)-chroman-4-yl]carbamoyl]-5-fluoro-phenyl]methyl]-4-ethyl-6-oxo-4-(trifluoromethyl)hexahydropyrimidin-2-ylidene]ammonium; 2,2,2-trifluoroacetate]
EC50: 80.2 nM

CCC[C@H](c1cccc(C(=O)N[C@H]2CCOc3ccccc32)c1)N1C(=N)N[C@@](CC2CC2)(c2ccccc2)CC1=O [Example 64, [(4R)-1-[(1R)-1-[3-[[(4S)-chroman-4-yl]carbamoyl]phenyl]butyl]-4-(cyclopropylmethyl)-6-oxo-4-phenyl-hexahydropyrimidin-2-ylidene]ammonium; 2,2,2-trifluoroacetate]
EC50: 75.4 nM

CCC[C@H](c1cccc(C(=O)N[C@@H]2c3ccccc3C[C@H]2O)c1)N1C(=N)N[C@@](CC2CC2)(c2ccccc2)CC1=O [Example 65, [(4R)-4-(cyclopropylmethyl)-1-[(1R)-1-[3-[[(1R,2R)-2-hydroxyindan-1-yl]carbamoyl]phenyl]butyl]-6-oxo-4-phenyl-hexahydropyrimidin-2-ylidene]ammonium; 2,2,2-trifluoroacetate]
EC50: 43.9 nM

CCC[C@H](c1cccc(C(=O)N[C@H]2CCOc3ccccc32)c1)N1C(=N)N[C@@](CC)(c2ccccc2)CC1=O [Example 66, [(4R)-1-[(1R)-1-[3-[[(4S)-chroman-4-yl]carbamoyl]phenyl]butyl]-4-ethyl-6-oxo-4-phenyl-hexahydropyrimidin-2-ylidene]ammonium; 2,2,2-trifluoroacetate]
EC50: 7.5 nM

CCC[C@H](c1cccc(C(=O)N[C@@H]2c3ccccc3C[C@H]2O)c1)N1C(=N)N[C@@](CC)(c2ccccc2)CC1=O [Example 67, [(4R)-4-ethyl-1-[(1R)-1-[3-[[(1R,2R)-2-hydroxyindan-1-yl]carbamoyl]phenyl]butyl]-6-oxo-4-phenyl-hexahydropyrimidin-2-ylidene]ammonium; 2,2,2-trifluoroacetate]
EC50: 2.7 nM

CCC[C@H](c1cccc(C(=O)N[C@H]2CCOc3ccccc32)c1)N1C(=N)N[C@](CC2CC2)(c2ccccc2)CC1=O [Example 68, [(4S)-1-[(1R)-1-[3-[[(4S)-chroman-4-yl]carbamoyl]phenyl]butyl]-4-(cyclopropylmethyl)-6-oxo-4-phenyl-hexahydropyrimidin-2-ylidene]ammonium; 2,2,2-trifluoroacetate]
EC50: 72.2 nM

CCC[C@H](c1cccc(C(=O)N[C@@H]2c3ccccc3C[C@H]2O)c1)N1C(=N)N[C@](CC2CC2)(c2ccccc2)CC1=O [Example 69, [(4S)-4-(cyclopropylmethyl)-1-[(1R)-1-[3-[[(1R,2R)-2-hydroxyindan-1-yl]carbamoyl]phenyl]butyl]-6-oxo-4-phenyl-hexahydropyrimidin-2-ylidene]ammonium; 2,2,2-trifluoroacetate]
EC50: 29.3 nM

CCC[C@H](c1cccc(C(=O)N[C@H]2CCOc3ccccc32)c1)N1C(=N)N[C@](CC)(c2ccccc2)CC1=O [Example 70, [(4S)-1-[(1R)-1-[3-[[(4S)-chroman-4-yl]carbamoyl]phenyl]butyl]-4-ethyl-6-oxo-4-phenyl-hexahydropyrimidin-2-ylidene]ammonium; 2,2,2-trifluoroacetate]
EC50: 76 nM

CCC[C@H](c1cccc(C(=O)N[C@@H]2c3ccccc3C[C@H]2O)c1)N1C(=N)N[C@](CC)(c2ccccc2)CC1=O [Example 71, [(4S)-4-ethyl-1-[(1R)-1-[3-[[(1R,2R)-2-hydroxyindan-1-yl]carbamoyl]phenyl]butyl]-6-oxo-4-phenyl-hexahydropyrimidin-2-ylidene]ammonium; 2,2,2-trifluoroacetate]
EC50: 9.3 nM

CCC1(CC)CC(=O)N([C@H](CCC#N)c2cccc(C(=O)N[C@H]3CCOc4ccccc43)c2)C(=N)N1 [Example 73A, [1-[1-[3-[[(4S)-chroman-4-yl]carbamoyl]phenyl]-3-cyano-propyl]-4,4-diethyl-6-oxo-hexahydropyrimidin-2-ylidene]ammonium; 2,2,2-trifluoroacetate]
EC50: 0.7 nM

CC#CCC[C@H](c1cccc(C(=O)N[C@H]2CCOc3ccccc32)c1)N1C(=N)NC(CC)(CC)CC1=O [Example 74, [1-[1-[3-[[(4S)-chroman-4-yl]carbamoyl]phenyl]hex-4-ynyl]-4,4-diethyl-6-oxo-hexahydropyrimidin-2-ylidene]ammonium; 2,2,2-trifluoroacetate]
EC50: 0.9 nM

CC(C)[C@]1(C)CC(=O)N(Cc2cccc(C(=O)N[C@H]3CCc4ccccc43)c2)C(=N)N1 [Example 75, [(4S)-1-[[3-[[(1S)-indan-1-yl]carbamoyl]phenyl]methyl]-4-isopropyl-4-methyl-6-oxo-hexahydropyrimidin-2-ylidene]ammonium; 2,2,2-trifluoroacetate]
EC50: 66.5 nM

CCC[C@H](c1cccc(C(=O)N[C@H]2CCc3ccccc32)c1)N1C(=N)NC(CC)(CC)CC1=O [Example 76, [4,4-diethyl-1-[1-[3-[[(1S)-indan-1-yl]carbamoyl]phenyl]butyl]-6-oxo-hexahydropyrimidin-2-ylidene]ammonium; 2,2,2-trifluoroacetate]
EC50: 0.9 nM
